# Experimental data: patent US20230293348A1, “DYES FOR USE IN A METHOD OF PHOTOPORATION OF THE INNER LIMITING MEMBRANE” (UNIVERSITEIT GENT, priority 2020, published 2023)
# Entries after “also recorded” stand apart in the source; their conditions may differ.
# Key:
# [1] = tested on: retinal surface of bovine retinal explants (Müller cell endfeet, nerve fibers); test: Retinal surface imaging with Mitotracker Deep Red and Hoechst after ICG photoporation; conditions: ICG 0,1 mg/ml, 0,4 J/cm^2 laser
# Experimental: FIG. 4: Images of the retinal surface after staining with Mitotracker and Hoechst. […] Scale bar = 25 µm.
# Furthermore, a method was tested to look at the retinal surface in more detail, allowing to visualize several types of structures such as nerve fibers, blood vessels, and Müller cells (cell type located right underneath the ILM). To this end, intact retinal explants were stained with a dye mixture of Mitotracker Deep Red and Hoechst, which allows to identify these structures. […] Indeed, in untreated explants, the retinal surface was neatly organized: a mosaic of Müller cell endfeet intertwined with bundles of nerve fibers.
# human ILM [2] = test: Inherent affinity of free ICG for the ILM; type: binding; conditions: preliminary data
# [3] = tested on: ILM of bovine retinal explants; test: ILM perforation by ICG photoporation, cryosections stained for Collagen IV; conditions: ICG 1 mg/ml, 0,4 J/cm^2 800 nm 2 ps laser pulses
# From the text: FIG. 2: Images of cryosections of conventional bovine explants stained for nuclei in the retina by Hoechst staining (indicated in grey - low contrast) and showing the ILM stained by antibodies against Collagen IV (indicated in white). […] The study aimed to perforate the ILM by photoporation. Thereto, a vital dye, in particular Indocyanine Green (ICG), was delivered to the ILM after which the retina was illuminated with a powerful but extremely short pulse of 800 nm laser light. Without being bound to theory, the absorbance of light by the ICG can result in the evaporation of the surrounding water, creating vapour nanobubbles (VNBs) which upon collapse can cause damage to neighbouring tissue such as in particular the ILM. To generate ILM perforation, an ICG solution (1 mg/ml) was applied on the ILM surface of bovine retinal explants followed by laser scanning of the tissue with 2 picosecond pulses.
# ILM of bovine explants = test: Retinal entry of 100 nm polystyrene nanoparticles (Fluospheres) after ICG-mediated ILM perforation; conditions: ICG 1 mg/ml, 0,4 J/cm^2 laser
# From the text: FIG. 5: Images of cryosections of bovine explants stained for nuclei in the retina by Hoechst (indicated in grey - low contrast). […] Scale = 25 µm
# It was further tested whether ICG-mediated ILM ablation allowed to deliver therapeutics to the retina.
# human ILM [4] = test: ILM ablation by ICG photoporation in human explants, cryosections stained for Collagen IV; conditions: 1 mg/ml ICG, 0,4 J/cm2 laser fluence
# Experimental: FIG. 6: Images of cryosections of human explants stained for nuclei in the retina by Hoechst staining (indicated in grey - low contrast) and showing the ILM stained by antibodies against Collagen IV (indicated in white); scale = 25 µm. Top row: untreated; bottom row: treatment with 1 mg/ml ICG and 0,4 J/cm^2 laser fluence. Absence of the ILM is indicated by a dashed line.
# Therefore, the approach was tested on human samples. Since the thickness of the ILM is also age dependent, we investigated human ILM ablation in younger and older patients. […] As illustrated in the top row, the ILM in untreated explants becomes gradually thicker with increasing age, which is an observation in accordance with literature (FIG. 6, untreated). Treated samples (bottom row) were treated with 1 mg/ml ICG and 0,4 J/cm2 laser fluence. Absence of the ILM is indicated by a dashed line.
compound,measurement,setting,value
"CC1(C)C(/C=C/C=C/C=C/C=C2\N(CCCCS(=O)(=O)O)c3ccc4ccccc4c3C2(C)C)=[N+](CCCCS(=O)(=O)[O-])c2ccc3ccccc3c21 [ICG, Indocyanine Green]",retinal surface organization (Mitotracker and Hoechst staining),[1],greatly disturbed; also recorded: way more disorganized
same,inherent affinity for the human ILM versus the bovine ILM,human ILM [2],remarkably higher than for the bovine ILM
same,ILM integrity on cryosections,[3],ILM ablation; also recorded: most of the ILM was absent with only small parts remaining
same,retinal entry of 100 nm polystyrene nanoparticles,ILM of bovine explants,high retinal uptake; also recorded: massive entry of the nanoparticles into the retina
same,ILM integrity on cryosections,human ILM [4]; human explant patient one,fragmented ILM
same,ILM integrity on cryosections,human ILM [4]; human explant patient three,completely absent
same,ILM integrity on cryosections,human ILM [4]; human explant patient two,completely absent
